Measured values taken from PubChem BioAssay (NCI).
“And” between values parts separate entries of the source, which are not always exact repeats. Equal values may be shown once.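 Protocol summary: plate cells (96-well), add compound at 5 concentrations, incubate 48 h, interpolate endpoints linearly. The concentration for 50% growth inhibition is given as GI50. Definition used: TGI = concentration required for complete inhibition of growth.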

How the values were obtained:
Assay in all cases: DTP human tumour cell line panel, 48 h
SNB-78 CNS = tested on: SNB-78 CNS
M19-MEL melanoma = tested on: M19-MEL melanoma
DMS 114 small cell lung = tested on: DMS 114 small cell lung
DLD-1 colon = tested on: DLD-1 colon
HOP-18 NSCLC = tested on: HOP-18 NSCLC
XF 498 CNS = tested on: XF 498 CNS
MDA-MB-231 breast = tested on: MDA-MB-231 breast
MDA-N = tested on: MDA-N

## CCOC(=O)c1ccc(N2C(=O)/C(=C\OC)c3ccccc3C2=O)cc1
SNB-78 CNS
  TGI: > 100 µM
M19-MEL melanoma
  TGI: > 100 µM
DMS 114 small cell lung
  TGI: > 100 µM

## N.N.NC(CS)C(=O)[O-].NC(CS)C(=O)[O-].[Pt+4] (centres undefined)
SNB-78 CNS
  GI50: > 50 µM
  TGI: > 50 µM
DLD-1 colon
  GI50: > 50 µM
  TGI: > 50 µM
HOP-18 NSCLC
  GI50: > 50 µM
  TGI: > 50 µM

## ON=C1CCC(c2ccccc2)CC1 (centres undefined)
XF 498 CNS
  TGI: > 100 µM
SNB-78 CNS
  TGI: > 100 µM
DLD-1 colon
  TGI: > 100 µM
HOP-18 NSCLC
  TGI: > 100 µM
M19-MEL melanoma
  TGI: > 100 µM
DMS 114 small cell lung
  TGI: > 100 µM

## Cc1ccc2c(=O)c3cccc(CC(=O)O)c3oc2c1C
MDA-MB-231 breast
  GI50: > 100 µM
  TGI: > 100 µM

## O=C1c2ccccc2-c2c1c1ccccc1c(=O)n2CCNCCNCCn1c2c(c3ccccc3c1=O)C(=O)c1ccccc1-2
MDA-MB-231 breast
  GI50: 0.432 µM
  TGI: 5.72 µM

## O=C1c2ccccc2-c2c1c1ccccc1c(=O)n2CCCN1CCOCC1
MDA-MB-231 breast
  GI50: 12 µM
  TGI: 34.1 µM

## COC(=O)/C(=C\c1c(C)[nH]c2ccccc12)S(=O)(=O)c1ccccc1
MDA-MB-231 breast
  GI50: 2.74 µM
  TGI: 14.5 µM

## COc1ccc(/C=C\c2cc(OC)c(OC)c(OC)c2)cc1OCC(=O)Nc1nc2ccc(C(F)(F)F)cc2s1
MDA-MB-231 breast
  GI50: 3.38 µM
  TGI: > 100 µM

## CNC(=O)c1cccc(-c2ccc3c(N4CCOC[C@@H]4C)nc(N4CCOC[C@@H]4C)nc3n2)c1
MDA-MB-231 breast
  GI50: 0.181 µM and 0.168 µM and 0.184 µM
  TGI: 34.3 µM and > 10 µM and > 64 µM

## Cc1cc(C)nc(Nc2nc3ccc([N+](=O)[O-])cc3[nH]2)n1
XF 498 CNS
  TGI: > 100 µM
SNB-78 CNS
  TGI: > 100 µM
DLD-1 colon
  TGI: > 100 µM
DMS 114 small cell lung
  TGI: > 100 µM

## COC(=O)Nc1nc2ccccc2c(=O)[nH]1
MDA-N
  TGI: 50.8 µM
MDA-MB-231 breast
  TGI: > 100 µM

## COc1cc2c(/C=C3/C(=O)Nc4ccccc43)c(Cl)n(Cc3ccccc3[N+](=O)[O-])c2cc1C
MDA-MB-231 breast
  GI50: 3.85 µM
  TGI: 31.3 µM

## C[C@]12CC[C@@H]3c4ccc(O)cc4CC[C@H]3[C@@H]1CC[C@@H]2NS(=O)(=O)Cc1ccc(Cl)cc1
MDA-MB-231 breast
  GI50: 1.75 µM
  TGI: 4.54 µM

## CC(=O)/C=C/c1ccc(C2CC(C)=Nc3c(ccc4c3C(=O)c3ccccc3C4=O)N2)cc1 (centres undefined)
XF 498 CNS
  TGI: > 100 µM
SNB-78 CNS
  TGI: > 100 µM
DLD-1 colon
  TGI: > 100 µM
HOP-18 NSCLC
  TGI: > 100 µM
M19-MEL melanoma
  TGI: > 100 µM
DMS 114 small cell lung
  TGI: > 100 µM

## CCN(CC)CCOc1ccc(/C=C2\CC3C4CC=C5C[C@@H](N6CCCC6)CC[C@]5(C)C4CC[C@]3(C)[C@H]2O)cc1OC (some centres undefined)
MDA-MB-231 breast
  GI50: 2.96 µM
  TGI: 7.58 µM

## O=c1cc(-c2ccccc2)nc2n1CCN2Cc1ccccc1
MDA-MB-231 breast
  GI50: 32.2 µM
  TGI: > 100 µM

## C[N+](C)(CCCCCC[N+](C)(C)CCCN1C(=O)c2cc3ccccc3cc2C1=O)CCCN1C(=O)c2ccccc2C1=O
MDA-MB-231 breast
  GI50: > 37.5 µM
  TGI: > 37.5 µM

## Cc1ccc2c(N)c(C(=O)N[C@H]3CCc4cc(N5CC6CCC(C5)N6)ccc4C3)sc2n1
MDA-MB-231 breast
  GI50: 0.606 µM
  TGI: 2.71 µM

## Nc1ccccc1C#C/C=C\C#Cc1ccc(Cl)cc1Cl
MDA-MB-231 breast
  GI50: 15.8 µM
  TGI: 35.6 µM

## CC1(C)N=C(N)N=C(N)N1c1cc(Cl)ccc1Cl
MDA-MB-231 breast
  GI50: > 100 µM
  TGI: > 100 µM

## O=C(O)c1cc2c(cn1)[nH]c1ccccc12
SNB-78 CNS
  TGI: > 100 µM
DLD-1 colon
  TGI: > 100 µM
HOP-18 NSCLC
  TGI: > 100 µM
M19-MEL melanoma
  TGI: > 100 µM
DMS 114 small cell lung
  TGI: > 100 µM

## CCSc1nc(N=Cc2cccs2)c2cn[nH]c2n1
MDA-MB-231 breast
  GI50: 4.51 µM
  TGI: > 100 µM

## COc1ccc(-c2nc(-c3ccccc3)c(-c3ccccc3)n2C2CC2)cc1OC1CCCC1
MDA-MB-231 breast
  GI50: > 165 µM
  TGI: > 165 µM

## C=C1CC[C@@H]2C(C)(C)CCC[C@@]2(C)[C@@H]1Cc1cc(O)ccc1O
SNB-78 CNS
  TGI: 5.25 µM
DLD-1 colon
  TGI: 18.1 µM
HOP-18 NSCLC
  TGI: 30 µM
M19-MEL melanoma
  TGI: 11 µM
DMS 114 small cell lung
  TGI: 4.1 µM

## O=[N+]([O-])/C=C/c1c[nH]c2ccccc12
MDA-MB-231 breast
  GI50: 15.2 µM
  TGI: 30.7 µM

## CC(C)(O)C1OCC(C2CCC3(C)C4=CCC5C(C)(C)C(O)CCC5(C)C4CCC23C)CC1O (centres undefined)
MDA-N
  TGI: 41.8 µM
MDA-MB-231 breast
  TGI: 28.6 µM

## CC(=O)OC(C)(C)/C=C/C(=O)[C@](C)(O)[C@H]1[C@H](O)C[C@@]2(C)[C@@H]3CC=C4[C@@H](C[C@H](O)C(=O)C4(C)C)[C@]3(C)C(=O)C[C@]12C
MDA-N
  TGI: 2.39 µM
MDA-MB-231 breast
  TGI: < 0.01 µM

## COc1ccc2ccc([Se]c3ccc4ccc(OC)cc4c3)cc2c1
XF 498 CNS
  TGI: > 100 µM
SNB-78 CNS
  TGI: > 100 µM
DLD-1 colon
  TGI: > 100 µM
HOP-18 NSCLC
  TGI: > 100 µM
M19-MEL melanoma
  TGI: > 100 µM
DMS 114 small cell lung
  TGI: > 100 µM

## COc1ccc(-c2cn[nH]c2-c2cc(OC)c(OC)c(OC)c2)cc1N
MDA-MB-231 breast
  GI50: < 0.01 µM and 0.063 µM
  TGI: > 100 µM

## O=S1(=O)C[C@@H](O)[C@H](O)CS1
XF 498 CNS
  TGI: > 100 µM
SNB-78 CNS
  TGI: > 100 µM
DLD-1 colon
  TGI: > 100 µM
HOP-18 NSCLC
  TGI: > 100 µM
M19-MEL melanoma
  TGI: > 100 µM
DMS 114 small cell lung
  TGI: > 100 µM
